Assays:
Format in all cases: functional
Design in all cases: scale not given: the % may be the effect or the level left
Mus musculus [1] = assay: Ex-vivo inhibition of BTK in C57BL/6J mouse assessed as anti-mouse IgD antibody stimulated BCR mediated CD69 level in whole blood isolated from 100 mg/kg, po bid treated mouse measured after 2 hrs post first dose by flow cytometry relative to control
Mus musculus [2] = assay: Ex-vivo inhibition of BTK in C57BL/6J mouse assessed as anti-mouse IgD antibody stimulated BCR mediated CD69 level in whole blood isolated from 100 mg/kg, po bid treated mouse measured after 6 hrs post first dose by flow cytometry relative to control
Mus musculus [3] = assay: Ex-vivo inhibition of BTK in C57BL/6J mouse assessed as anti-mouse IgD antibody stimulated BCR mediated CD69 level in whole blood isolated from 10 mg/kg, po bid treated mouse measured after 24 hrs post first dose by flow cytometry relative to control

CCN1CCN(Cc2ccc(-c3cc4c(-c5cccc(N6CCOc7cc(C8CC8)cc(F)c7C6=O)c5CO)ccnc4[nH]3)nc2)CC1
Activity (Mus musculus [1]): 72% | Activity (Mus musculus [2]): 83% | Activity (Mus musculus [3]): 40%

— ChEMBL document CHEMBL4177534, “Discovery and evaluation of 1H-pyrrolo[2,3-b]pyridine based selective and reversible small molecule BTK inhibitors for the treatment of rheumatoid arthritis” (Bioorg Med Chem Lett, 2017)
